Test results reported in patent US10392389B2, “Heterocyclic compounds for the inhibition of PASK” (BioEnergenix, LLC, priority 2012, dated 2019).
pIC50: −log10 of the molar value.

What follows are compounds tested against T1, PASK (Invitrogen) (Homo sapiens, UniProt Q96RG2) (assay: PAS Kinase FRET Assay). Conditions: PAS kinase TR-FRET assay (665 nm/615 nm); read-out: IC50 Kinase Domain.
T1 construct: IC50 Kinase Domain; purchased Invitrogen
Type: biochemical
Description: Biochemical Assay for hPASK Activity
The aim of the FRET assay is to determine the inhibition potential of test compounds on targeted kinase. This assay platform provides a homogenous screening method for measuring kinase activity by quantitating the amount of phospho-substrate in solution following a kinase reaction.
In the presence of kinase and ATP, the Ulight-peptide is phosphorylated and captured by an anti-phospho-substrate antibody, which brings the Eu chelate donor and Ulight acceptor dyes into close proximity. Upon excitation at 340 nm, the Eu chelate transfers its energy to the Ulight dye, resulting in a fluorescent light emission at 665 nm.
Titration of kinase at 1 mM ATP was achieved via the following protocol. After making serial three-fold dilutions of PASK (Invitrogen) in reaction buffer across the plate; 5 μl of kinase dilution and 5 μl substrate/ATP mix were added to the wells of the white Optiplate-384 (PerkinElmer). The contents of the plate were and incubated at RT for 1 h. The reaction was stopped by adding 5 μl of stop solution to each test well followed by mixing and incubation at RT for 10 minutes. 5 μl of detection mix (detection antibody diluted in detection buffer) was added; the contents of the plate were mixed and then incubated in the dark for 1 hour at RT. The signal was recorded at TR-FRET mode (665 nm/615 nm). The results were graphed to calculate the EC50.
Titration of ATP at the EC50 concentration of kinase to determine ATP Km,app. was performed using the following method. After making serial dilutions of ATP (Invitrogen), 5 μl of ATP dilution and 5 μl substrate/kinase mix were added to the wells of the white Optiplate-384 (PerkinElmer). The contents of the plate were and incubated at RT for 1 h. The reaction was stopped by adding 5 μl of stop solution to each test well followed by mixing and incubation at RT for 10 minutes. 5 μl of detection mix (detection antibody diluted in detection buffer) was added; the contents of the plate were mixed and then incubated in the dark for 1 hour at RT. The signal was recorded at TR-FRET mode (665 nm/615 nm). The results were graphed to calculate the EC50 as the ATP Km,app.
Compound screening was done via the following method. 10 mM stock solution of test compound in DMSO was prepared by dissolving test compound in DMSO at RT for 1 hour, and then sonicating at 100% output for 8 minutes. If compound is not soluble under this condition, it was diluted to 3 mM. Kinase reaction buffer was prepared containing 10 mM MgCl2, 50 mM HEPES, 1 mM EGTA, 0.01% TWEEN-20, 2 mM DTT. Serial dilutions of the test compounds were prepared at 4× final assay concentrations using Freedom EVO200® dispensing system as follows: 12×10^−5 M, 4×10^−5 M, 1.33×10^−5 M, 4.44×10^−6 M, 1.48×10^−6 M, 4.92×10^−7 M, 1.65×10^−7 M, […], 1.82×10^−8M, 6.09×10^−9, 2.03×10^−9 M. Test compounds (2.5 μl at 4× the final assay concentration) was added to wells using Freedom EVO200® dispensing system. As a positive control, 2.5 μl of positive compound was added to assay wells, and 2.5 μl of DMSO to assay wells as vehicle control. Kinase solution was prepared in reaction buffer at 2× final assay concentration. Kinase solution (5 μl) was added to each well of the assay plate. The substrate and ATP solution was prepared in kinase reaction buffer at 4× final assay concentration. The kinase reaction was started by adding 2.5 μl of substrate+ATP mix solution to each well of the assay plate. The plate is mixed on a plate shaker; then covered and allowed to react for 2 hours in the dark at 25° C. without shaking. The reaction was stopped by adding 5 μl of stop solution to each test well followed by mixing and incubation at RT for 10 minutes in the dark. 5 μl of detection mix (detection antibody diluted in detection buffer) was added; the contents of the plate were mixed and then incubated in the dark for 1 hour at RT. The signal was recorded at TR-FRET mode (665 nm/615 nm).

T1 sequence (Q96RG2 999-1251 limits assumed): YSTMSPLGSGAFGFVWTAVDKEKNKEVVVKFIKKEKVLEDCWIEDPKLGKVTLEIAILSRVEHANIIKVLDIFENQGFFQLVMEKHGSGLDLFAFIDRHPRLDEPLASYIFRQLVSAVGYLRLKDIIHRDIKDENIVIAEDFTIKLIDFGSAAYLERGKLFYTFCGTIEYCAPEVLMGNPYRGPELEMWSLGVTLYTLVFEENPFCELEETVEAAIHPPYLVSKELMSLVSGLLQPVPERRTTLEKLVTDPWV

| pIC50 | SMILES |
| --- | --- |
| ≥ 5.00 | CCn1ncc2cc(-c3cc(=O)n4ncc(-c5nc(C)cs5)c4[nH]3)ccc21 [Example 25, 5-(1-ethyl-1H-indazol-5-yl)-3-(4-methyl-1,3-thiazol-2-yl)-4H,7H-pyrazolo[1,5-a]pyrimidin-7-one] |
| ≥ 5.00 | Cc1noc(-c2cnn3c(=O)cc(-c4ccc(Cl)cc4)[nH]c23)n1 [Example 7, 5-(4-chlorophenyl)-3-(3-methyl-1,2,4-oxadiazol-5-yl)-4H,7H-pyrazolo[1,5-a]pyrimidin-7-one] |
| ≥ 5.00 | Cc1noc(-c2c(C)nn3c(=O)cc(-c4ccc(Cl)cc4)[nH]c23)n1 [Example 8, 5-(4-chlorophenyl)-2-methyl-3-(3-methyl-1,2,4-oxadiazol-5-yl)-4H,7H-pyrazolo[1,5-a]pyrimidin-7-one] |
| ≥ 5.00 | CCc1noc2cc(-c3cc(=O)n4ncc(-c5ncc(C)o5)c4[nH]3)ccc12 [Example 121, 5-(3-ethylbenzo[d]isoxazol-6-yl)-3-(5-methyloxazol-2-yl)pyrazolo[1,5-a]pyrimidin-7(4H)-one] |
| ≥ 5.00 | Cc1csc(-c2cnn3c(=O)cc(-c4ccc5c(cnn5C)c4)[nH]c23)n1 [Example 72, 5-(1-methyl-1H-indazol-5-yl)-3-(4-methylthiazol-2-yl)pyrazolo[1,5-a]pyrimidin-7(4H)-one] |
| ≥ 5.00 | O=c1cc(-c2ccc(Cl)c(Cl)c2)[nH]c2c(-c3noc4ccccc34)cnn12 [Example 60, 3-(benzo[d]isoxazol-3-yl)-5-(3,4-dichlorophenyl)pyrazolo[1,5-a]pyrimidin-7(4H)-one] |
| ≥ 5.00 | Cc1noc(-c2cnn3c(=O)cc(-c4ccc5c(cnn5C5COC5)c4)[nH]c23)n1 [Example 99, 3-(3-methyl-1,2,4-oxadiazol-5-yl)-5-(1-(oxetan-3-yl)-1H-indazol-5-yl)pyrazolo[1,5-a]pyrimidin-7(4H)-one] |
| ≥ 5.00 | CNC(=O)Cc1cnn2c(=O)cc(-c3ccc(Cl)c(OC)c3)[nH]c12 [Example 81, 2-(5-(4-chloro-3-methoxyphenyl)-7-oxo-4,7-dihydropyrazolo[1,5-a]pyrimidin-3-yl)-N-methylacetamide] |
| ≥ 5.00 | CCCc1nn2c(=O)cc(-c3ccc4c(cnn4CC)c3)[nH]c2c1-c1nc(C)no1 [Example 116, 5-(1-ethyl-1H-indazol-5-yl)-3-(3-methyl-1,2,4-oxadiazol-5-yl)-2-propyl-4H,7H-pyrazolo[1,5-a]pyrimidin-7-one] |
| ≥ 5.00 | CCOc1cc(-c2cc(=O)n3ncc(-c4ncco4)c3[nH]2)ccc1Cl [Example 34, 5-(4-chloro-3-ethoxyphenyl)-3-(oxazol-2-yl)-4H,7H-pyrazolo[1,5-a]pyrimidin-7-one] |
| ≥ 5.00 | Cc1coc(-c2cnn3c(=O)cc(-c4ccc5[nH]nnc5c4)[nH]c23)n1 [Example 11, 5-(1H-1,2,3-benzotriazol-5-yl)-3-(4-methyl-1,3-oxazol-2-yl)-4H,7H-pyrazolo[1,5-a]pyrimidin-7-one] |
| ≥ 5.00 | COc1cc(-c2cc(=O)n3ncc(-c4cc(C)no4)c3[nH]2)ccc1Cl [Example 52, 5-(4-chloro-3-methoxyphenyl)-3-(3-methylisoxazol-5-yl)pyrazolo[1,5-a]pyrimidin-7(4H)-one] |
| ≥ 5.00 | Cc1cnc(-c2cnn3c(=O)cc(-c4ccc(Cl)cc4)[nH]c23)o1 [Example 47, 5-(4-chlorophenyl)-3-(5-methyloxazol-2-yl)pyrazolo[1,5-a]pyrimidin-7(4H)-one] |
| ≥ 5.00 | COc1cc(-c2cc(=O)n3ncc(-c4nccs4)c3[nH]2)ccc1Cl [Example 39, 5-(4-chloro-3-methoxyphenyl)-3-(thiazol-2-yl)-4H,7H-pyrazolo[1,5-a]pyrimidin-7-one] |
| ≥ 5.00 | CCOc1cc(-c2cc(=O)n3ncc(-c4ncc(C)o4)c3[nH]2)ccc1F [Example 36, 5-(3-ethoxy-4-fluorophenyl)-3-(5-methyloxazol-2-yl)-4H,7H-pyrazolo[1,5-a]pyrimidin-7-one] |
| ≥ 5.00 | Cc1cnc(-c2cnn3c(=O)cc(-c4ccc5c(cnn5C)c4)[nH]c23)o1 [Example 107, 5-(1-Methyl-1H-indazol-5-yl)-3-(5-methyloxazol-2-yl)pyrazolo[1,5-a]pyrimidin-7(4H)-one] |
| ≥ 5.00 | O=c1cc(-c2ccc(Cl)cc2)[nH]c2c(-c3ncco3)cnn12 [Example 48, 5-(4-chlorophenyl)-3-(oxazol-2-yl)pyrazolo[1,5-a]pyrimidin-7(4H)-one] |
| ≥ 5.00 | CCc1coc(-c2cnn3c(=O)cc(-c4ccc5c(cnn5CC)c4)[nH]c23)n1 [Example 28, 5-(1-ethyl-1H-indazol-5-yl)-3-(4-ethyloxazol-2-yl)pyrazolo[1,5-a]pyrimidin-7(4H)-one] |
| ≥ 5.00 | Cn1ncc2cc(-c3cc(=O)n4ncc(C#N)c4[nH]3)ccc21 [Example 108, 5-(1-methyl-1H-indazol-5-yl)-7-oxo-4H,7H-pyrazolo[1,5-a]pyrimidine-3-carbonitrile] |
| ≥ 5.00 | Cc1cnc(-c2cnn3c(=O)cc(-c4ccc(Cl)cc4)[nH]c23)s1 [Example 106, 5-(4-Chlorophenyl)-3-(5-methylthiazol-2-yl)pyrazolo[1,5-a]pyrimidin-7(4H)-one] |
| ≥ 5.00 | CC(C)Oc1cc(-c2cc(=O)n3ncc(-c4ccnn4C)c3[nH]2)ccc1Cl [Example 76, 5-(4-chloro-3-isopropoxyphenyl)-3-(1-methyl-1H-pyrazol-5-yl)pyrazolo[1,5-a]pyrimidin-7(4H)-one] |
| ≥ 5.00 | Cc1noc2cc(-c3cc(=O)n4ncc(C(N)=O)c4[nH]3)ccc12 [Example 122, 5-(3-methylbenzo[d]isoxazol-6-yl)-7-oxo-4,7-dihydropyrazolo[1,5-a]pyrimidine-3-carboxamide] |
| < 5.00 | O=c1cc(-c2ccc(Cl)cn2)[nH]c2c(-c3ncco3)cnn12 [Example 113, 5-(5-chloropyridin-2-yl)-3-(1,3-oxazol-2-yl)-4H,7H-pyrazolo[1,5-a]pyrimidin-7-one] |
| ≥ 5.00 | CCCn1ncc2cc(-c3cc(=O)n4ncc(-c5ncc(C)o5)c4[nH]3)ccc21 [Example 103, 3-(5-methyloxazol-2-yl)-5-(1-propyl-1H-indazol-5-yl)pyrazolo[1,5-a]pyrimidin-7(4H)-one] |
| ≥ 5.00 | COc1nn2c(=O)cc(-c3ccc(Cl)cc3)[nH]c2c1-c1nc(C)no1 [Example 10, 5-(4-chlorophenyl)-2-methoxy-3-(3-methyl-1,2,4-oxadiazol-5-yl)-4H,7H-pyrazolo[1,5-a]pyrimidin-7-one] |
| ≥ 5.00 | CCNC(=O)Cc1cnn2c(=O)cc(-c3ccc(Cl)c(OC)c3)[nH]c12 [Example 80, 2-[5-(4-chloro-3-methoxyphenyl)-7-oxo-4H,7H-pyrazolo[1,5-a]pyrimidin-3-yl]-N-ethylacetamide] |
| ≥ 5.00 | CCn1ncc2cc(-c3cc(=O)n4nc(C)c(-c5ncco5)c4[nH]3)ccc21 [Example 29, 5-(1-ethyl-1H-indazol-5-yl)-2-methyl-3-(oxazol-2-yl)-4H,7H-pyrazolo[1,5-a]pyrimidin-7-one] |
| ≥ 5.00 | Cc1cnc(-c2cnn3c(=O)cc(-c4ccc(Cl)c(Cl)c4)[nH]c23)s1 [Example 102, 5-(3,4-dichlorophenyl)-3-(5-methylthiazol-2-yl)pyrazolo[1,5-a]pyrimidin-7(4H)-one] |
| ≥ 5.00 | Cc1cnc(-c2cnn3c(=O)cc(-c4ccc(Cl)c(OCC(F)(F)F)c4)[nH]c23)o1 [Example 37, 5-[4-chloro-3-(2,2,2-trifluoroethoxy)phenyl]-3-(5-methyloxazol-2-yl)-4H,7H-pyrazolo[1,5-a]pyrimidin-7-one] |
